Source: ChEMBL document CHEMBL1201862, “PubChem BioAssay data set” (2004)
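Results reflect a 48-hour exposure of cells in 96-well plates to compound at five concentrations. At the GI50, growth is halved.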 The source made the active and inactive calls. Cut-off read from the data, not from the text of the source: active = GI50 up to about 1.1 µM and inactive = higher.

Key:
Assay in all cases: NCI-60 cell line screen, 48 h
UACC-257 = test system: UACC-257
Malme-3M = test system: Malme-3M
SK-MEL-28 = test system: SK-MEL-28
SNB-75 = test system: SNB-75
MDA-MB-231 = test system: MDA-MB-231
U-251 = test system: U-251
NCI-H226 = test system: NCI-H226
RPMI-8226 = test system: RPMI-8226
OVCAR-8 = test system: OVCAR-8
SW-620 = test system: SW-620
NCI/ADR-RES = test system: NCI/ADR-RES
A549 = test system: A549
IGROV-1 = test system: IGROV-1
HCT-15 = test system: HCT-15
PC-3 = test system: PC-3
CCRF-CEM = test system: CCRF-CEM
SNB-19 = test system: SNB-19
T47D = test system: T47D
SF-268 = test system: SF-268
Hs-578T = test system: Hs-578T
NCI-H522 = test system: NCI-H522
SK-OV-3 = test system: SK-OV-3
MDA-MB-435 = test system: MDA-MB-435
OVCAR-4 = test system: OVCAR-4
SR = test system: SR
LOX IMVI = test system: LOX IMVI
786-0 = test system: 786-0
EKVX = test system: EKVX
MOLT-4 = test system: MOLT-4
HCT-116 = test system: HCT-116
TK-10 = test system: TK-10
OVCAR-3 = test system: OVCAR-3
A498 = test system: A498
ACHN = test system: ACHN
DU-145 = test system: DU-145
COLO 205 = test system: COLO 205
BT-549 = test system: BT-549
MCF7 = test system: MCF7
SN12C = test system: SN12C
SK-MEL-2 = test system: SK-MEL-2
HOP-92 = test system: HOP-92
SF-295 = test system: SF-295
HT-29 = test system: HT-29
MDA-N = test system: MDA-N
KM12 = test system: KM12
CAKI-1 = test system: CAKI-1
RXF 393 = test system: RXF 393
NCI-H23 = test system: NCI-H23
NCI-H460 = test system: NCI-H460
HOP-62 = test system: HOP-62
SK-MEL-5 = test system: SK-MEL-5
SF-539 = test system: SF-539
UACC-62 = test system: UACC-62
M14 = test system: M14
K562 = test system: K562
HL-60 = test system: HL-60
OVCAR-5 = test system: OVCAR-5

SMILES: CSc1ccc2c(c1)N(CCCN(C)C)c1ccccc1S2
- GI50 (UACC-257): 7.16 µM (inactive)
- GI50 (Malme-3M): 9.16 µM (inactive)
- GI50 (SK-MEL-28): 2.29 µM (inactive)
- GI50 (SNB-75): 6.97 µM (inactive)
- GI50 (MDA-MB-231): 12.7 µM (inactive)
- GI50 (U-251): 13.5 µM (inactive)
- GI50 (NCI-H226): 19.8 µM (inactive)
- GI50 (RPMI-8226): 12.2 µM (inactive)
- GI50 (OVCAR-8): 17.2 µM (inactive)
- GI50 (SW-620): 15.2 µM (inactive)
- GI50 (NCI/ADR-RES): 12.1 µM (inactive)
- GI50 (A549): 15.4 µM (inactive)
- GI50 (IGROV-1): 13.2 µM (inactive)
- GI50 (HCT-15): 15 µM
- GI50 (PC-3): 11.1 µM (inactive)
- GI50 (CCRF-CEM): 5.89 µM (inactive)
- GI50 (SNB-19): 16.2 µM (inactive)
- GI50 (T47D): 10.4 µM (inactive)
- GI50 (SF-268): 13.6 µM (inactive)
- GI50 (Hs-578T): 11 µM (inactive)
- GI50 (NCI-H522): 12.8 µM (inactive)
- GI50 (SK-OV-3): 15.1 µM (inactive)
- GI50 (MDA-MB-435): 4.67 µM (inactive)
- GI50 (OVCAR-4): 11.5 µM (inactive)
- GI50 (SR): 6.19 µM (inactive)
- GI50 (LOX IMVI): 11.6 µM (inactive)
- GI50 (786-0): 13.7 µM (inactive)
- GI50 (EKVX): 18.6 µM (inactive)
- GI50 (MOLT-4): 5.81 µM (inactive)
- GI50 (HCT-116): 12.7 µM (inactive)
- GI50 (TK-10): 14.9 µM (inactive)
- GI50 (OVCAR-3): 12.8 µM (inactive)
- GI50 (A498): 11.2 µM (inactive)
- GI50 (ACHN): 11.7 µM (inactive)
- GI50 (DU-145): 15.6 µM (inactive)
- GI50 (COLO 205): 12.7 µM (inactive)
- GI50 (BT-549): 15.4 µM (inactive)
- GI50 (MCF7): 11.9 µM (inactive)
- GI50 (SN12C): 13.1 µM (inactive)
- GI50 (SK-MEL-2): 15.6 µM (inactive)
- GI50 (HOP-92): 11.7 µM (inactive)
- GI50 (SF-295): 12.8 µM (inactive)
- GI50 (HT-29): 6.78 µM (inactive)
- GI50 (MDA-N): 10.7 µM (inactive)
- GI50 (KM12): 11.8 µM (inactive)
- GI50 (CAKI-1): 8.67 µM (inactive)
- GI50 (RXF 393): 7.55 µM (inactive)
- GI50 (NCI-H23): 16.4 µM (inactive)
- GI50 (NCI-H460): 10.8 µM (inactive)
- GI50 (HOP-62): 14 µM (inactive)
- GI50 (SK-MEL-5): 11.4 µM (inactive)
- GI50 (SF-539): 17.3 µM (inactive)
- GI50 (UACC-62): 10.4 µM (inactive)
- GI50 (M14): 5.19 µM (inactive)
- GI50 (K562): 4.28 µM (inactive)
- GI50 (HL-60): 12 µM (inactive)
- GI50 (OVCAR-5): 15.3 µM (inactive)
